From ChEMBL document CHEMBL3856189, “Synthesis of novel diterpenoid analogs with in-vivo antitumor activity” (Eur J Med Chem, 2016) come the findings set out here.

Assay [1] is described as follows: Antiproliferative activity against human MCF7 cells after 96 hrs by SRB assay. The following applies: MCF7, 96 h. The assay is classed as functional, cell-based.
Assay [2] in a line: Antiproliferative activity against human MDA-MB-231 cells after 96 hrs by SRB assay. The assay is classed as functional, cell-based. Particulars: MDA-MB-231, 96 h.
The nature of assay [3]: Antiproliferative activity against human T47D cells after 96 hrs by SRB assay. Type of assay: functional, cell-based.
Assay [4] can be described thus: Antiproliferative activity against human DU145 cells after 96 hrs by SRB assay. Type of assay: functional, cell-based. Particulars: DU-145, 96 h.
Assay [5] relates to T47D. Put plainly: Induction of apoptosis in human T47D cells assessed as late apoptotic cells at 40 uM after 48 hrs by Annexin V-FITC/propidium iodide staining based flow cytometry (reference value: 3.04 %). The assay is classed as functional.
Assay [6] concerns T47D. Put plainly: (§1) Antimigratory activity in human T47D cells assessed as inhibition of cell migration after 12 hrs by crystal violet staining based transwell migration assay. The assay is classed as functional.
Assay [7] in a line: as §1. The assay is classed as functional.
For assay [8], the system named is DU-145. Put plainly: Selectivity index, ratio of IC50 for HAF cells to IC50 for human DU145 cells. The assay is classed as functional.
Assay [9] concerns HCT-116. Put plainly: Selectivity index, ratio of IC50 for HAF cells to IC50 for human HCT116 cells. Type of assay: functional.
A short description of assay [10]: Antiproliferative activity against human HL60 cells after 96 hrs by SRB assay. Particulars: HL-60, 96 h. Type of assay: functional, cell-based.
Assay [11] has as its system MCF7. Put plainly: Selectivity index, ratio of IC50 for HAF cells to IC50 for human MCF7 cells. Type of assay: functional.
Assay [12] is described as follows: Antiproliferative activity against human PC3 cells after 96 hrs by SRB assay. Type of assay: functional, cell-based. Particulars: PC-3, 96 h.
A short description of assay [13]: Antiproliferative activity against human HT-29 cells after 96 hrs by SRB assay. Type of assay: functional, cell-based. The following applies: HT-29, 96 h.
The nature of assay [14]: Antiproliferative activity against human HCT116 cells after 96 hrs by SRB assay. Particulars: HCT-116, 96 h. The assay is classed as functional, cell-based.
The subject of assay [15] is T47D. Put plainly: Selectivity index, ratio of IC50 for HAF cells to IC50 for human T47D cells. The assay is classed as functional.
Assay [16] is described as follows: Selectivity index, ratio of IC50 for HAF cells to IC50 for human MDA-MB-231 cells. Type of assay: functional.
Assay [17] has as its system PC-3. Put plainly: Selectivity index, ratio of IC50 for HAF cells to IC50 for human PC3 cells. The assay is classed as functional.
Assay [18] concerns HL-60. Put plainly: Selectivity index, ratio of IC50 for HAF cells to IC50 for human HL60 cells. Type of assay: functional.
Assay [19] concerns T47D. Put plainly: Induction of apoptosis in human T47D cells assessed as late apoptotic cells at 20 uM after 48 hrs by Annexin V-FITC/propidium iodide staining based flow cytometry (reference value: 3.04 %). The assay is classed as functional.
Assay [20] is described as follows: Selectivity index, ratio of IC50 for HAF cells to IC50 for human HT-29 cells. The assay is classed as functional.
A short description of assay [21]: Antiproliferative activity against HAF cells after 96 hrs by SRB assay. The following applies: Homo sapiens. The assay is classed as cell-based.
The subject of assay [22] is T47D. Put plainly: Induction of apoptosis in human T47D cells assessed as late apoptotic cells at 80 uM after 48 hrs by Annexin V-FITC/propidium iodide staining based flow cytometry (reference value: 3.04 %). Type of assay: functional.
For assay [23], the system named is T47D. Put plainly: Induction of apoptosis in human T47D cells assessed as early apoptotic cells at 20 uM after 48 hrs by Annexin V-FITC/propidium iodide staining based flow cytometry (reference value: 3.79 %). The assay is classed as functional.
In assay [24] the test system is T47D. Put plainly: Induction of apoptosis in human T47D cells assessed as early apoptotic cells at 80 uM after 48 hrs by Annexin V-FITC/propidium iodide staining based flow cytometry (reference value: 3.79 %). The assay is classed as functional.
Assay [25] concerns T47D. Put plainly: Induction of apoptosis in human T47D cells assessed as early apoptotic cells at 40 uM after 48 hrs by Annexin V-FITC/propidium iodide staining based flow cytometry (reference value: 3.79 %). The assay is classed as functional.
Assay [26] concerns T47D. Put plainly: (§2) Inhibition of colony formation in human T47D cells after 7 days by crystal violet staining based assay. Type of assay: functional, cell-based.
Assay [27] is described as follows: as §2. Type of assay: functional, cell-based. Particulars: 168 h.

SMILES strings stand for the structures. Where only a bound is given, the exact number is not on record here.

On to `COc1cc2c(cc1C(=O)Nc1ccc(Cl)cc1)CC[C@H]1C(C)(C)[C@@H](O)CC[C@]21C`, for which the values for the IC50 in assay [1], in [2] and in assay [3] were 1460 nM, 1030 nM and 150 nM, respectively.
Taken in the same sequence, the figures for `COc1cc2c(cc1C(=O)NC1CCCCC1)CC[C@H]1C(C)(C)[C@@H](O)CC[C@]21C` were greater than 25000 nM, greater than 25000 nM and 10900 nM.
With `COc1ccccc1NC(=O)c1cc2c(cc1OC)[C@@]1(C)CC[C@H](O)C(C)(C)[C@@H]1CC2`, the IC50 in assay [1] came to 1960 nM; in [2], 200 nM; in [3], 30 nM.
Taken in the same sequence, the figures for `COc1cc2c(cc1C(=O)Nc1ccccc1N)CC[C@H]1C(C)(C)[C@@H](O)CC[C@]21C` were 11200 nM, 4310 nM and 550 nM.
Taken in the same sequence, the figures for `COc1ccc(N(C)C(=O)c2cc3c(cc2OC)[C@@]2(C)CC[C@H](O)C(C)(C)[C@@H]2CC3)cc1` were greater than 25000 nM, greater than 25000 nM and 12700 nM.
Taken in the same sequence, the figures for `COc1cc2c(cc1C(=O)O)CC[C@H]1C(C)(C)C(O)CC[C@]21C` (single isomer, unassigned) were greater than 25000 nM, greater than 25000 nM and greater than 25000 nM.
Take `COc1cc2c(cc1C(=O)Oc1ccccc1)CC[C@H]1C(C)(C)[C@@H](O)CC[C@]21C`: the IC50 in assay [1], in assay [2] and in [3] was greater than 25000 nM throughout.
Regarding `COc1ccc(OC(=O)c2cc3c(cc2OC)[C@@]2(C)CC[C@H](O)C(C)(C)[C@@H]2CC3)cc1`, the IC50 is greater than 25000 nM in assay [1], 14300 nM in assay [2] and 5350 nM in assay [3].
Turning to `COc1cc2c(cc1C(=O)Nc1ccccc1Cl)CC[C@H]1C(C)(C)[C@@H](O)CC[C@]21C`, the IC50 in [1] turned out to be 6550 nM; in [2], 3690 nM; in assay [3], 820 nM.
As to `COc1cc2c(cc1C(=O)Nc1ccccc1)CC[C@H]1C(C)(C)[C@@H](O)CC[C@]21C`, the IC50 came out at 10600 nM in [4]; 4800 nM in [1]; 12400 nM in [10]; 4490 nM in [2]; 2510 nM in [12]; 2450 nM in assay [13]. Also, the IC50 in [14] came to 1540 nM; in assay [21], 9460 nM; in assay [3], 840 nM. The Activity in assay [5] was 6.97%; in assay [6], “Dose-dependent effect”; in [19] it was 3.54%; in assay [22] it was 7.72%; in assay [23], 2.25%; in [24] it was 4.7%. Besides, the Activity in assay [25] is 3.33%; in assay [26], “Dose-dependent effect”. Besides, the EC50 came out at 37700 nM in [7] and 987 nM in [27]. Further, the “Ratio IC50” value in assay [8], in [9], in [11], in assay [15], in assay [16] and in assay [17] was 1.9 each time. For the same compound, the “Ratio IC50” value in [18] and in [20] was 1.9 throughout.
As for `COc1cc2c(cc1C(=O)Nc1ccc(N)cc1)CC[C@H]1C(C)(C)[C@@H](O)CC[C@]21C`, the IC50 is 5210 nM in [1], 3090 nM in assay [2] and 230 nM in assay [3].
In the case of `COc1cc2c(cc1C(=O)Nc1ccc(C)cc1)CC[C@H]1C(C)(C)[C@@H](O)CC[C@]21C`, the IC50 in [4] worked out at 2090 nM; in assay [1] it was 220 nM; in assay [10], 3520 nM; in assay [2], 1220 nM; in assay [12], 1480 nM; in assay [13], 280 nM. In addition, the IC50 in assay [14] was 940 nM; in assay [21], 3850 nM; in [3], 230 nM. Besides, the “Ratio IC50” value in assay [8], in assay [9], in assay [11], in [15], in assay [16] and in assay [17] was 3.1 throughout. Also, the “Ratio IC50” value in [18] and in assay [20] was 3.1 each time.
Consider `COc1cc2c(cc1C(=O)Nc1cccc(Cl)c1)CC[C@H]1C(C)(C)[C@@H](O)CC[C@]21C`, for which the IC50 stood at 2230 nM in [1], 990 nM in assay [2] and 260 nM in assay [3].
For `COc1cc2c(cc1C(=O)Nc1ccccc1C)CC[C@H]1C(C)(C)[C@@H](O)CC[C@]21C` the same measures were 3560 nM, 2300 nM and 510 nM.
Regarding `COc1cc2c(cc1C(=O)Nc1ccccc1F)CC[C@H]1C(C)(C)[C@@H](O)CC[C@]21C`, the IC50 in assay [1], in assay [2] and in assay [3] was greater than 25000 nM each time.
As to `COC(=O)c1ccc(NC(=O)c2cc3c(cc2OC)[C@@]2(C)CC[C@H](O)C(C)(C)[C@@H]2CC3)cc1`, the values for the IC50 in [1], in assay [2] and in [3] were 4610 nM, 6810 nM and 2700 nM, respectively.
For the compound `COc1ccc(NC(=O)c2cc3c(cc2OC)[C@@]2(C)CC[C@H](O)C(C)(C)[C@@H]2CC3)cc1`, the IC50 in assay [4] is 540 nM; in assay [1], 280 nM; in assay [10], 410 nM; in [2], 410 nM; in assay [12], 500 nM; in [13], 520 nM. Further, the IC50 stood at 510 nM in assay [14], 4010 nM in [21] and 30 nM in assay [3]. For the same compound, the “Ratio IC50” value in assay [8], in assay [9], in assay [11], in [15], in assay [16] and in assay [17] was 10 each time. In addition, the “Ratio IC50” value in assay [18] and in [20] was 10 each time.
For `COc1cc2c(cc1C(=O)N(C)C)CC[C@H]1C(C)(C)[C@@H](O)CC[C@]21C`, the IC50 in [1], in [2] and in assay [3] was greater than 25000 nM each time.
Consider `CC1(C)[C@@H](O)CC[C@]2(C)c3cc(O)c(C(=O)Nc4ccc(F)cc4)cc3CC[C@@H]12`, for which the figures for the IC50 in [1], in [2] and in assay [3] were 6050 nM, 9250 nM and 2550 nM, respectively.
Regarding `CCNC(=O)c1cc2c(cc1OC)[C@@]1(C)CC[C@H](O)C(C)(C)[C@@H]1CC2`, the IC50 in assay [1] was greater than 25000 nM; in assay [2] it was 7650 nM; in assay [3], greater than 25000 nM.
Take `COc1cc2c(cc1C(=O)N(C)c1ccc(F)cc1)CC[C@H]1C(C)(C)[C@@H](O)CC[C@]21C`: the IC50 in [1], in assay [2] and in [3] was greater than 25000 nM in each case.
As to `COc1cc2c(cc1C(=O)Nc1ccc(F)cc1)CC[C@H]1C(C)(C)[C@@H](O)CC[C@]21C`, the IC50 in assay [1] stood at 820 nM; in assay [2], 2400 nM; in assay [3] it was 40 nM.
Regarding `COc1cc2c(cc1C(=O)Nc1ccc(O)cc1)CC[C@H]1C(C)(C)[C@@H](O)CC[C@]21C`, the IC50 in assay [1] stood at 3070 nM; in assay [2], 1900 nM; in assay [3], 70 nM.
`COC(=O)c1ccccc1NC(=O)c1cc2c(cc1OC)[C@@]1(C)CC[C@H](O)C(C)(C)[C@@H]1CC2`: the IC50 was 4310 nM in assay [1], 7980 nM in assay [2] and 1220 nM in assay [3].
